Earlier results on 4 compounds are cited in patent publication US20080293652A1, “Combination of Ad-P53 and Chemotherapy for the Treatment of Tumours” (priority 2004, published 2008).

For data set [1] the following is noted: for part of the dose excreted / detected intact in the urine: in vivo.
The test system of data set [2] is multiple myeloma. Particulars: oral administration.

SMILES strings stand for the structures. Numbered stars: 1 amine (or outer) side, 2 acyl side, 3 side chain; on linkers, the order of the positions; unused ones are H or OH. Bridge positions count the residues as written; N and C are the ends. Square brackets hold non-standard residues; d marks the D form. Peptide text beside a SMILES is read from it. I, II: the chains in the order shown. Actinocin(9to1) = Cc1c2oc3c(C)ccc(C(=O)[*:1])c3nc-2c(C(=O)[*:2])c(N)c1=O; NMeV = CN[C@H](C(=O)O)C(C)C; Sar = CNCC(=O)O

Regarding `Cc1c2oc3c(C)ccc(C(=O)N[C@@H]4C(=O)N[C@H](C(C)C)C(=O)N5CCC[C@H]5C(=O)N(C)CC(=O)N(C)[C@@H](C(C)C)C(=O)O[C@@H]4C)c3nc-2c(C(=O)N[C@@H]2C(=O)N[C@H](C(C)C)C(=O)N3CCC[C@H]3C(=O)N(C)CC(=O)N(C)[C@@H](C(C)C)C(=O)O[C@@H]2C)c(N)c1=O` [Actinomycin D] (I: T[dV]P[Sar][NMeV] / II: T[dV]P[Sar][NMeV]; ester I:1-I:C, II:1-II:C; linker I:N-II:N via Actinocin(9to1)), the “part of the dose excreted / detected intact in the urine” value in data set [1] is recorded as 10%.

As to `N[C@@H](Cc1ccc(N(CCCl)CCCl)cc1)C(=O)O` [Melphalan, 4-[bis(2-chloroethyl)amino]-L-phenylalanine], the “part of patients showing a favorable response” value in data set [2] was “one third to one half”.

Turning to `CC[C@]1(O)C[C@@H]2CN(CCc3c([nH]c4ccccc34)[C@@](C(=O)OC)(c3cc4c(cc3OC)N(C)[C@H]3[C@@](O)(C(=O)OC)[C@H](OC(C)=O)[C@]5(CC)C=CCN6CC[C@]43[C@@H]65)C2)C1` [Vinblastine], the “part of the dose excreted / detected intact in the urine” value in data set [1] is “Approximately 15%”. As to `CC[C@]1(O)C[C@H]2CN(CCc3c([nH]c4ccccc34)[C@@](C(=O)OC)(c3cc4c(cc3OC)N(C=O)[C@H]3[C@@](O)(C(=O)OC)[C@H](OC(C)=O)[C@]5(CC)C=CCN6CC[C@]43[C@@H]65)C2)C1` [Vincristine], the “terminal half-life (clearance from plasma)” value in data set [1] (multiphasic clearance) is “about 24 hours”.
